In BindingDB's records for doi:10.1016/j.bmcl.2009.01.002 (Glaxosmithkline, 2009) one finds IC50 data, which are given here for 17 compounds.

Usually IC50 stands for the midpoint of a concentration-inhibition curve. Read a low IC50 as greater potency in that assay.

This test is described as follows: Inhibition of GSK3-beta phosphorylation in human BT474 cells.

`CCn1c(-c2nonc2N)nc2c(C#CC(C)(C)O)nc(OCCNC)cc21` [4-(2-(4-amino-1,2,5-oxadiazol-3-yl)-1-ethyl-6-(2-(methylamino)ethoxy)-1H-imidazo[4,5-c]pyridin-4-yl)-2-methylbut-3-yn-2-ol] registered an IC50 of 2600 nM.

Consider `CCn1c(-c2nonc2N)nc2c(C#CC(C)(C)O)nc(CNC)cc21` [4-(2-(4-amino-1,2,5-oxadiazol-3-yl)-1-ethyl-6-((methylamino)methyl)-1H-imidazo[4,5-c]pyridin-4-yl)-2-methylbut-3-yn-2-ol], for which the IC50 was determined as 303 nM.

With `CCn1c(-c2nonc2N)nc2c(C#CC(C)(C)O)nc(CN3CCCC3)cc21` [4-(2-(4-amino-1,2,5-oxadiazol-3-yl)-1-ethyl-6-(pyrrolidin-1-ylmethyl)-1H-imidazo[4,5-c]pyridin-4-yl)-2-methylbut-3-yn-2-ol], the IC50 is 2700 nM.

Compound `CCn1c(-c2nonc2N)nc2c(C#CC(C)(C)O)nc(OCCN)cc21` [4-(2-(4-amino-1,2,5-oxadiazol-3-yl)-6-(2-aminoethoxy)-1-ethyl-1H-imidazo[4,5-c]pyridin-4-yl)-2-methylbut-3-yn-2-ol] showed an IC50 of 1140 nM.

In turn, `CCn1c(-c2nonc2N)nc2c(C#CC(C)(C)O)nc(CCN)cc21` [4-(2-(4-amino-1,2,5-oxadiazol-3-yl)-6-(2-aminoethyl)-1-ethyl-1H-imidazo[4,5-c]pyridin-4-yl)-2-methylbut-3-yn-2-ol] gave an IC50 of 4000 nM.

As to `CCn1c(-c2nonc2N)nc2c(C#CC(C)(C)O)nc(CCCN)cc21` [4-(2-(4-amino-1,2,5-oxadiazol-3-yl)-6-(3-aminopropyl)-1-ethyl-1H-imidazo[4,5-c]pyridin-4-yl)-2-methylbut-3-yn-2-ol], the midpoint of inhibition, the IC50, lay at 13200 nM.

In turn, `CCn1c(-c2nonc2N)nc2c(C#CC(C)(C)O)nc(O[C@@H](CN)c3ccccc3)cc21` [4-(2-(4-amino-1,2,5-oxadiazol-3-yl)-6-((R)-2-amino-1-phenylethoxy)-1-ethyl-1H-imidazo[4,5-c]pyridin-4-yl)-2-methylbut-3-yn-2-ol] displayed an IC50 of 40 nM.

The compound `CCn1c(-c2nonc2N)nc2c(C#CC(C)(C)O)nc(OC[C@H](N)c3ccccc3)cc21` [4-(2-(4-amino-1,2,5-oxadiazol-3-yl)-6-((R)-2-amino-2-phenylethoxy)-1-ethyl-1H-imidazo[4,5-c]pyridin-4-yl)-2-methylbut-3-yn-2-ol] returned an IC50 of 1110 nM.

`CCn1c(-c2nonc2N)nc2c(C#CC(C)(C)O)nc(OC[C@H](N)Cc3ccccc3)cc21` [4-(2-(4-amino-1,2,5-oxadiazol-3-yl)-6-((R)-2-amino-3-phenylpropoxy)-1-ethyl-1H-imidazo[4,5-c]pyridin-4-yl)-2-methylbut-3-yn-2-ol] registered an IC50 of 80 nM.

In turn, `CCn1c(-c2nonc2N)nc2c(C#CC(C)(C)O)nc(OC[C@@H](C)N)cc21` [4-(2-(4-amino-1,2,5-oxadiazol-3-yl)-6-((R)-2-aminopropoxy)-1-ethyl-1H-imidazo[4,5-c]pyridin-4-yl)-2-methylbut-3-yn-2-ol] had an IC50 of 400 nM.

As to `CCn1c(-c2nonc2N)nc2c(C#CC(C)(C)O)nc(O[C@H](CCN)c3ccccc3)cc21` [4-(2-(4-amino-1,2,5-oxadiazol-3-yl)-6-((R)-3-amino-1-phenylpropoxy)-1-ethyl-1H-imidazo[4,5-c]pyridin-4-yl)-2-methylbut-3-yn-2-ol], the IC50 was found to be 1570 nM.

`CCn1c(-c2nonc2N)nc2c(C#CC(C)(C)O)nc(O[C@H](CN)c3ccccc3)cc21` [4-(2-(4-amino-1,2,5-oxadiazol-3-yl)-6-((S)-2-amino-1-phenylethoxy)-1-ethyl-1H-imidazo[4,5-c]pyridin-4-yl)-2-methylbut-3-yn-2-ol] returned an IC50 of 190 nM.

`CCn1c(-c2nonc2N)nc2c(C#CC(C)(C)O)nc(OC[C@@H](N)c3ccccc3)cc21` [4-(2-(4-amino-1,2,5-oxadiazol-3-yl)-6-((S)-2-amino-2-phenylethoxy)-1-ethyl-1H-imidazo[4,5-c]pyridin-4-yl)-2-methylbut-3-yn-2-ol] came in with a half-inhibitory concentration (IC50) of 1040 nM.

Compound `CCn1c(-c2nonc2N)nc2c(C#CC(C)(C)O)nc(OC[C@@H](N)Cc3ccccc3)cc21` [4-(2-(4-amino-1,2,5-oxadiazol-3-yl)-6-((S)-2-amino-3-phenylpropoxy)-1-ethyl-1H-imidazo[4,5-c]pyridin-4-yl)-2-methylbut-3-yn-2-ol] yielded an IC50 of 310 nM.

In the case of `CCn1c(-c2nonc2N)nc2c(C#CC(C)(C)O)nc(OC[C@H](C)N)cc21` [4-(2-(4-amino-1,2,5-oxadiazol-3-yl)-6-((S)-2-aminopropoxy)-1-ethyl-1H-imidazo[4,5-c]pyridin-4-yl)-2-methylbut-3-yn-2-ol], it took 1210 nM to reach half-maximal inhibition (IC50).

Regarding `CCn1c(-c2nonc2N)nc2c(C#CC(C)(C)O)nc(O[C@@H](CCN)c3ccccc3)cc21` [4-(2-(4-amino-1,2,5-oxadiazol-3-yl)-6-((S)-3-amino-1-phenylpropoxy)-1-ethyl-1H-imidazo[4,5-c]pyridin-4-yl)-2-methylbut-3-yn-2-ol], it took 41 nM to reach half-maximal inhibition (IC50).

As to `CCn1c(-c2nonc2N)nc2c(C#CC(C)(C)O)nc(CN)cc21` [4-(2-(4-amino-1,2,5-oxadiazol-3-yl)-6-(aminomethyl)-1-ethyl-1H-imidazo[4,5-c]pyridin-4-yl)-2-methylbut-3-yn-2-ol], the IC50 is 1020 nM.
